Source: PubChem BioAssay AID1845205 (Molecular Pharmacology Branch, DTP, NCI, 2023)
pIC50: −log10 of the molar value. Where “and” joins values, the source holds several entries; their conditions need not be identical. Identical values can stand only once. Calls of active or inactive are those of the source. Rule for the calls: active = viability on the fitted dose curve at most 10% of control; inactive = the rest.

System: MPNST multicellular tumor spheroids, viability % test/control
Assay: Anticancer human tumor MPNST cell line growth inhibition;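 for pIC50: spheroids exposed to agents for seven days after three days of growth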;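 for viability, T/C: luminescence signal used as surrogate for viable cell amount; spheroids exposed to agents for seven days after three days of growth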
Settings: for viability, T/C: stronger effect = lower value
Source text: Multicellular complex tumor spheroid response to DNA repair inhibitors in combination with DNA-damaging drugs
This study explores the anticancer activities of DNA-damaging drugs and inhibitors of DNA damage repair, both as single agents and in combinations. Complex tumor spheroids comprised of malignant cells, endothelial cells and mesenchymal stem cells served as an in vitro model for human solid tumors. This model system incorporates physiologically relevant features and patient-derived or established malignant cell lines with clinically relevant genetic alterations from many tumor types. Twenty-six patient-derived or established malignant cell lines were evaluated representing sarcoma, melanoma, small cell lung cancer (SCLC), non-small cell lung cancer (NSCLC), as well as bladder, ovarian and pancreatic cancers. The concentration ranges selected for each drug and investigational agent were based upon clinically achievable concentrations if the clinical Cmax of the agent was known.
Compounds. The drugs and compounds olaparib (NSC753686), talazoparib (NSC767125), berzosertib (NSC777718), elimusertib (NSC800525), nedisertib (NSC802822), VX-984 (NSC792969), AZD-1390 (NSC803789), temozolomide (NSC362856), topotecan (NSC609699), trabectedin (NSC813783), staurosporine (NSC755774), and gemcitabine (NSC613327) were obtained from the National Cancer Institute (NCI) Developmental Therapeutics Program Chemical Repository. The FDA-approved anticancer drug set is available from the Developmental Therapeutics Program at https://dtp.cancer.gov/organization/dscb/obtaining/available_plates.htm. […] The stock solutions were prepared in dimethyl sulfoxide (DMSO, Sigma-Aldrich, St. Louis, MO, cat. D2650) at 400-fold the tested concentration and stored at -70 degrees C. Prior to their use, the stock solutions were diluted in fresh medium and the final DMSO concentration in the assay was 0.25% (v/v). All drugs and investigational agents were tested over a range starting from a high concentration at or near the clinical Cmax and decreasing in half-log increments. If the clinical Cmax for an agent had not been determined, the highest concentration tested was 10 microM.
Cell Lines. The patient-derived cancer cell (PDC) lines: 156681-154-R-J1-PDC, 283228-195-R-J1-PDC, 287954-098-R-J1-PDC, 292921-168-R-J2-PDC, 349418-098-R-PDC, 425362-245-T-J1-PDC, 556581-035-R-J1-PDC, and BL0293-F563-PDC were received from the NCI Patient-Derived Models Repository (PDMR, https://pdmr.cancer.gov). The established cell lines HS-SY-2 (RRID:CVCL_8719), MPNST, and SYO-1 (RRID:CVCL_7146) were obtained from the Sloan Kettering Institute. The alveolar soft parts sarcoma cell line ASPS-1 (RRID:CVCL_S738) was established at the NCI and grown from internal seed stocks. The following established cell lines were purchased from the American Type Culture Collection (ATCC, Manassas, VA): G-401 (ATCC, cat. CRL-1441, RRID:CVCL_0270), SW982 (ATCC, cat. HTB-93, RRID:CVCL_1734), VA-ES-BJ (ATCC, cat. CRL-2138, RRID:CVCL_1785), NCI-H719 (ATCC, cat. CRL-5837, RRID:CVCL_1582), NCI-H196 (ATCC, cat. CRL-5823, RRID:CVCL_1509), NCI-H841 (ATCC, cat. CRL-5845, RRID:CVCL_1595), NCI-H1618 (ATCC, cat. CRL-5879, RRID:CVCL_1480), NCI-H1876 (ATCC, cat. CRL-5902, RRID:CVCL_1503), DMS 114 (ATCC, cat. CRL-2066; RRID:CVCL_1174), NCI-H211 (ATCC, cat. CRL-5824; RRID:CVCL_1529), and SW 1271 (ATCC, cat. CRL-2177, RRID:CVCL_1716). The small cell lung cancer cell line COR-L88 was purchased from Sigma-Aldrich (cat. 92031917-1VL, RRID:CVCL_1141). The non-small cell lung cancer cell lines NCI-H226 (RRID:CVCL_1544) and NCI-H322M (RRID:CVCL_1557) were established at the NCI and grown from internal seed stocks. Pooled donor human umbilical vein endothelial cells (HUVEC, Lonza, cat. CC-2519) and human mesenchymal stem cells (hMSC, Lonza, cat. PT-2501) were purchased from Lonza (Walkersville, MD).
Cell Culture. All cells were maintained in an incubator at 37 degrees C and 5% CO2 with 95% humidity. […]

CC(C)n1c(=O)n(C)c2cnc3cc(F)c(-c4ccc(OCCCN5CCCCC5)nc4)cc3c21
viability, T/C (compound 0.0316 µM): 116% and 75.2% and 95.3%
viability, T/C (compound 0.1 µM): 92% and 92.2% and 75.8%
viability, T/C (compound 0.316 µM): 105% and 84.5% and 144%
viability, T/C (compound 1 µM): 93.2% and 88.2% and 84.2%
viability, T/C (compound 3.16 µM): 92.5% and 85.4% and 72.3%
viability, T/C (compound 10 µM): 63.2% and 56.1% and 54.5%
pIC50 (curve of compound): < 5.00

CC1COCCN1c1cc(-c2ccnn2C)c2ccnc(-c3ccn[nH]3)c2n1 (stereo unspecified)
viability, T/C (compound 0.0316 µM): 54.6% and 70.5% and 65.8%
viability, T/C (compound 0.1 µM): 47.8% and 60% and 55.1%
viability, T/C (compound 0.316 µM): 37.7% and 46.4% and 41.8%
viability, T/C (compound 1 µM): 39.5% and 46.2% and 33.2%
viability, T/C (compound 3.16 µM): 28.1% and 34.2% and 28.3%
viability, T/C (compound 10 µM): 22.3% and 30.9% and 25%
pIC50 (curve of compound): 7.18 and 6.50 and 6.81

CC[C@@]1(O)C(=O)OCc2c1cc1n(c2=O)Cc2cc3c(CN(C)C)c(O)ccc3nc2-1
viability, T/C (compound 0.03 µM): 53% [middle of 10 runs]
viability, T/C (compound 0.3 µM): 41.1% [middle of 10 runs]
IC50 (compound alone, run of 12/16/2019): 28.5 nM [middle of 5 runs]

CNCc1ccc(-c2cc(-c3nc(-c4ccc(S(=O)(=O)C(C)C)cc4)cnc3N)on2)cc1
viability, T/C (compound 0.00949 µM): 119% and 97.4% and 89.4%
viability, T/C (compound 0.03 µM): 113% and 110% and 98.9%
viability, T/C (compound 0.0949 µM): 100% and 81.1% and 87.2%
viability, T/C (compound 0.3 µM): 74.1% and 69.5% and 55.1%
viability, T/C (compound 0.949 µM): 61.8% and 69.6% and 42.9%
viability, T/C (compound 3 µM): 65.9% and 69.1% and 43.7%
pIC50 (curve of compound): < 5.52 and 6.31

COc1cc(C)[nH]c(=O)c1CN1CCc2c(Cl)cc(C(OC)C3COC3)c(Cl)c2C1=O (stereo unspecified)
viability, T/C (compound 0.0316 µM): 77.2% and 80.5% and 102%
viability, T/C (compound 0.1 µM): 79.6% and 90% and 88.8%
viability, T/C (compound 0.316 µM): 84.7% and 83.3% and 96%
viability, T/C (compound 1 µM): 95.8% and 93.7% and 93.3%
viability, T/C (compound 3.16 µM): 89.1% and 96.8% and 98.1%
viability, T/C (compound 10 µM): 85.9% and 98.7% and 92.1%
pIC50 (curve of compound): < 5.00

COc1cc2c(cc1O)CCNC21CSC2c3c(OC(C)=O)c(C)c4c(c3C(COC1=O)N1C(O)C3Cc5cc(C)c(OC)c(O)c5C(C21)N3C)OCO4 (stereo unspecified)
viability, T/C (compound 0.003 µM): 12.3% [middle of 10 runs]

COc1ccc([C@@H](O)c2cc(-c3ncnc4cc(N5CCOCC5)ccc34)c(F)cc2Cl)nn1
viability, T/C (compound 0.0316 µM): 33.1% and 109% and 92.9%
viability, T/C (compound 0.1 µM): 26% and 94% and 75.6%
viability, T/C (compound 0.316 µM): 21.6% and 87.5% and 78.7%
outcome (compound 1 µM): inactive
viability, T/C (compound 1 µM): 14.7% and 50.9%

Cc1cc(C)c(CNC(=O)c2cc(-c3ccc(CN4CCOCC4)cc3)cc3c2cnn3C2CCCC2)c(=O)[nH]1
viability, T/C (compound 0.0316 µM): 75.2% and 93.7% and 93.8%
viability, T/C (compound 0.1 µM): 119% and 109% and 93.5%
viability, T/C (compound 0.316 µM): 90.4% and 118% and 91.3%
viability, T/C (compound 1 µM): 97.2% and 101% and 92.3%
viability, T/C (compound 3.16 µM): 107% and 114% and 98.7%
viability, T/C (compound 10 µM): 79.3% and 100% and 107%
pIC50 (curve of compound): < 5.00

Cc1sc2c(c1C)C(c1ccc(Cl)cc1)=NC(CC(=O)Nc1ccc(O)cc1)c1nnc(C)n1-2 (stereo unspecified)
viability, T/C (compound 0.00949 µM): 124% and 109% and 90.5%
viability, T/C (compound 0.03 µM): 110% and 117% and 95.1%
viability, T/C (compound 0.0949 µM): 92.3% and 99.1% and 60.3%
viability, T/C (compound 0.3 µM): 63.9% and 75.2% and 36.5%
viability, T/C (compound 0.949 µM): 51.5% and 55.6% and 23.4%
viability, T/C (compound 3 µM): 46.8% and 52.1% and 25.7%

Cn1ncnc1[C@H]1c2n[nH]c(=O)c3cc(F)cc(c23)N[C@@H]1c1ccc(F)cc1
viability, T/C (compound 0.00949 µM): 84.8% and 85.2% and 73.3%
viability, T/C (compound 0.03 µM): 105% and 79.8% and 70.5%
viability, T/C (compound 0.0949 µM): 91.6% and 74.7% and 66.9%
viability, T/C (compound 0.3 µM): 76.3% and 66% and 60.6%
viability, T/C (compound 0.949 µM): 67.1% and 53.2% and 46.5%
viability, T/C (compound 3 µM): 62.9% and 51.3% and 43.7%
pIC50 (curve of compound): < 5.52 and 6.12

Cn1nnc2c(C(N)=O)ncn2c1=O
pIC50 (compound alone, run of 11/07/2019): < 4.00 and 4.51

O=C(c1cc(Cc2n[nH]c(=O)c3ccccc23)ccc1F)N1CCN(C(=O)C2CC2)CC1
viability, T/C (compound 0.0949 µM): 88.3% and 108% and 83.2%
viability, T/C (compound 0.3 µM): 75.1% and 84.1% and 60.3%
viability, T/C (compound 0.949 µM): 79.3% and 91.9% and 51.5%
viability, T/C (compound 3 µM): 95.2% and 96.5% and 51.2%
viability, T/C (compound 9.49 µM): 68.4% and 72.2% and 27.7%
viability, T/C (compound 30 µM): 49.3% and 56.8% and 28%

[2H]c1nc(C)nc([2H])c1-c1cc(NC[C@@H](C)c2cccc3c(C(=O)NC)ccnc23)ncn1
viability, T/C (compound 0.0316 µM): 96.1% and 83.1% and 86.7%
viability, T/C (compound 0.1 µM): 77.8% and 109% and 75.6%
viability, T/C (compound 0.316 µM): 82.6% and 102% and 90.4%
viability, T/C (compound 1 µM): 101% and 103% and 119%
viability, T/C (compound 3.16 µM): 110% and 104% and 71.3%
viability, T/C (compound 10 µM): 101% and 100% and 67.4%
pIC50 (curve of compound): < 5.00

O=C(c1cc(Cc2n[nH]c(=O)c3ccccc23)ccc1F)N1CCN(C(=O)C2CC2)CC1 + CC[C@@]1(O)C(=O)OCc2c1cc1n(c2=O)Cc2cc3c(CN(C)C)c(O)ccc3nc2-1
pIC50 (curve of first compound, second compound 0.003 µM): < 4.52
pIC50 (curve of first compound, second compound 0.00949 µM): < 4.52
pIC50 (curve of first compound, second compound 0.03 µM): < 4.52
pIC50 (curve of first compound, second compound 0.0949 µM): < 4.52
pIC50 (curve of first compound, second compound 0.3 µM): > 7.02
viability, T/C (second compound 0.003 µM, first compound 0.0949 µM): 87.4%
viability, T/C (second compound 0.003 µM, first compound 0.3 µM): 78%
viability, T/C (second compound 0.003 µM, first compound 0.949 µM): 72.9%
viability, T/C (second compound 0.003 µM, first compound 3 µM): 68%
viability, T/C (second compound 0.003 µM, first compound 9.49 µM): 69.5%
viability, T/C (second compound 0.003 µM, first compound 30 µM): 58.2%
viability, T/C (second compound 0.00949 µM, first compound 0.0949 µM): 81.5%
viability, T/C (second compound 0.00949 µM, first compound 0.3 µM): 73.7%
viability, T/C (second compound 0.00949 µM, first compound 0.949 µM): 62.2%
viability, T/C (second compound 0.00949 µM, first compound 3 µM): 59.3%
viability, T/C (second compound 0.00949 µM, first compound 9.49 µM): 59.9%
viability, T/C (second compound 0.00949 µM, first compound 30 µM): 59%
viability, T/C (second compound 0.03 µM, first compound 0.0949 µM): 53.5%
viability, T/C (second compound 0.03 µM, first compound 0.3 µM): 59.2%
viability, T/C (second compound 0.03 µM, first compound 0.949 µM): 57%
viability, T/C (second compound 0.03 µM, first compound 3 µM): 58.4%
viability, T/C (second compound 0.03 µM, first compound 9.49 µM): 60.9%
viability, T/C (second compound 0.03 µM, first compound 30 µM): 55.3%
viability, T/C (second compound 0.0949 µM, first compound 0.0949 µM): 57.5%
viability, T/C (second compound 0.0949 µM, first compound 0.3 µM): 53.1%
viability, T/C (second compound 0.0949 µM, first compound 0.949 µM): 58.5%
viability, T/C (second compound 0.0949 µM, first compound 3 µM): 54.9%
viability, T/C (second compound 0.0949 µM, first compound 9.49 µM): 54.6%
viability, T/C (second compound 0.0949 µM, first compound 30 µM): 55%
viability, T/C (second compound 0.3 µM, first compound 0.0949 µM): 49.3%
viability, T/C (second compound 0.3 µM, first compound 0.3 µM): 50.7%
viability, T/C (second compound 0.3 µM, first compound 0.949 µM): 50.5%
viability, T/C (second compound 0.3 µM, first compound 3 µM): 46.3%
viability, T/C (second compound 0.3 µM, first compound 9.49 µM): 47.8%
viability, T/C (second compound 0.3 µM, first compound 30 µM): 38.6%
